Values quoted from earlier work in PMC6361557 (Cancer Science, 2019).

Test system: PSMA
Details: LNCaP cells

Compound | IC50
^68Ga‐PSMA‐11 | 24.3 nM
